From US7446177B2, “Uses of DC-SIGN and DC-SIGNR for inhibiting hepatitis C virus infection” (Progenics Pharmaceuticals, Inc., priority 2001, dated 2008) come the findings set out here.

In test [1] the target is T1, HCV-E2 binding to DC-SIGN (Homo sapiens, UniProt Q9NNX6).
T1 construct: E2 from Accurate Chemicals, NY Item # 5444; E2 produced in CHO cells
As to conditions: HeLa-DC-SIGN cells, 20 beads/cell; mannan 20 ug/ml, antibodies 0.1-10 ug/ml, EDTA or EGTA 5 mM. The method, then:
(§1) Carboxylate-modified FluoSpheres® NeutrAvidin™ labeled microspheres (505/515 nm, 1.0 um; Molecular Probes, Eugene, Oreg.) were coated with HCV E2 glycoprotein as described for ICAM-1 beads (Geijtenbeek et al, Blood, 94, 754-764 (1999)). Briefly, NeutrAvidin™-coated beads were sonicated, and washed in PBS/BSA (0.5%). Beads were incubated with biotinylated-Sp-conjugated AffiniPure F(ab′)2 goat anti-mouse IgG F(ab′)2 fragment specific (6 ug/ml in PBS/BSA (0.5%); Jackson Immunoresearch Laboratories, Inc., West Grove, Pa.) for 2 hours at 37° C. After washing, beads were incubated with mouse anti-E2 antibodies (6 ug/ml in PBS/BSA (0.5%)) at 4° C. overnight. The beads were washed and incubated with 250 ng/ml purified HCV E2 produced in CHO cells (Accurate Chemicals, NY) overnight at 4° C.
(§2) This was performed as described by Geijtenbeek et al, (Blood, 94, 754-764 (1999)), with modifications. Cells were removed from culture by cell dissociation solution (Sigma) for 5 minutes at 37° C. and washed three times in adhesion buffer (20 mM Tris-HCl [pH 8.0], 150 mM NaCl, 1 mM CaCl2, 2 mM MgCl2, and 0.5% BSA). Cells were resuspended at a final concentration of 5×10^6 cells/ml in adhesion buffer for 30 minutes at 4° C. to recharge Ca2+ levels. Cells ([…]) were preincubated with mannan (20 ug/ml; Sigma), antibodies (0.1-10 ug/ml), EDTA (5 mM) or EGTA (5 mM) for 10 minutes at room temperature. HCV-E2-coated fluorescent beads (20 beads/cell) were added, and the suspension incubated for 30 minutes at 37° C. Adhesion was determined by measuring the percentage of cells that bound fluorescent beads by flow cytometry using a FACSca (Becton Dickinson, Oxnard, Calif.).
(§3) To determine whether DC-SIGN and DC-SIGN-R bind to HCV-E2 glycoproetin, a flow cytometric adhesion assay (Geijtenbeek et al, Blood, 94, 754-764 (1999)) was adapted. HCV-E2 protein produced in CHO cells was captured on fluorescent beads using a panel of anti-E2 mAbs, which were incubated with DC-SIGN- and DC-SIGN-R-HeLa cells at a ratio of 20 beads per cell.

The target of test [2] is T2, HCV-E2 binding to DC-SIGN-R (Homo sapiens, UniProt Q9H2X3).
T2 construct: E2 from Accurate Chemicals, NY Item # 6749; E2 produced in CHO cells
T2 sequence (Q9H2X3 whole entry): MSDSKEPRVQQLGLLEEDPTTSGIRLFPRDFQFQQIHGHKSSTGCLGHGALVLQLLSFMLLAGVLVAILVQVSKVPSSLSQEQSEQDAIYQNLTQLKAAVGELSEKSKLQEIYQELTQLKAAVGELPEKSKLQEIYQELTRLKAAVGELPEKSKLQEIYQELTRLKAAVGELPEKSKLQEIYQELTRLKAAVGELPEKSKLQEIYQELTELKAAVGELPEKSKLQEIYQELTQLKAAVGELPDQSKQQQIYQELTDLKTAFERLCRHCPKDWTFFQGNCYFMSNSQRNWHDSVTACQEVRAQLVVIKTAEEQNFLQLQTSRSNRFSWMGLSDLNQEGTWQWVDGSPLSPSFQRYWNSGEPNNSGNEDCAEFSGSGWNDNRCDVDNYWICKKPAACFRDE
As to conditions: HeLa-DC-SIGN-R cells, 20 beads/cell; mannan 20 ug/ml, antibodies 0.1-10 ug/ml, EDTA or EGTA 5 mM. The method, then: as §1, §2, §3

Entries after “also recorded” stand apart in the source; their conditions may differ.

T1 sequence (Q9NNX6 whole entry): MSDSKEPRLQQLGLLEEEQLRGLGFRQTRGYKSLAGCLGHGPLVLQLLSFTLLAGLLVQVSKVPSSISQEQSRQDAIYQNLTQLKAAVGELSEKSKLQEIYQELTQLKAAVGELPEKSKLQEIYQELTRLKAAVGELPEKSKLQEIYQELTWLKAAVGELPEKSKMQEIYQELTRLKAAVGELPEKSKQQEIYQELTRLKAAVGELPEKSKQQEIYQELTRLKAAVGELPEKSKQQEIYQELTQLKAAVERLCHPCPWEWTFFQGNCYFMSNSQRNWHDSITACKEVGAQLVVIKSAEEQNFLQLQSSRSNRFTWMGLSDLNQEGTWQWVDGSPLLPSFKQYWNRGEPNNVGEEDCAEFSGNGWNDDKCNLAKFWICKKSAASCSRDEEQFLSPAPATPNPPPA

As for `O=C(O)CN(CCN(CC(=O)O)CC(=O)O)CC(=O)O` [EDTA], the “Inhibition of adhesion of HCV-E2-coated beads to DC-SIGN” value in test [1] was “efficiently inhibited”. Also, the “Inhibition of adhesion of HCV-E2-coated beads to DC-SIGN-R” value (“Inhibition of adhesion … to DC-SIGN-R” below) in test [2] was “efficiently inhibited”.
For the molecule `O=C(O)CN(CCOCCOCCN(CC(=O)O)CC(=O)O)CC(=O)O` [EGTA], the “Inhibition of adhesion of HCV-E2-coated beads to DC-SIGN” value in test [1] was “efficiently inhibited”. Further, the “Inhibition of adhesion … to DC-SIGN-R” value in test [2] was “efficiently inhibited”.
Consider mannan, for which, in test [1], the “Inhibition of adhesion of HCV-E2-coated beads to DC-SIGN” value was “inhibit; also recorded: efficiently inhibited; also recorded: blocked”. The “Inhibition of adhesion … to DC-SIGN-R” value in test [2] was “inhibit; also recorded: efficiently inhibited; also recorded: blocked”.
